Assay type in all cases: biochemical
In assay [1] the target is T1, human FLT-3 (Arg571-Ser993) (Homo sapiens, UniProt P36888).
T1 construct: human FLT-3 (Arg571-Ser993); GST (N); purchased Cell Signaling Technology; host or cells: baculovirus expression system
T1 sequence (P36888 571-993): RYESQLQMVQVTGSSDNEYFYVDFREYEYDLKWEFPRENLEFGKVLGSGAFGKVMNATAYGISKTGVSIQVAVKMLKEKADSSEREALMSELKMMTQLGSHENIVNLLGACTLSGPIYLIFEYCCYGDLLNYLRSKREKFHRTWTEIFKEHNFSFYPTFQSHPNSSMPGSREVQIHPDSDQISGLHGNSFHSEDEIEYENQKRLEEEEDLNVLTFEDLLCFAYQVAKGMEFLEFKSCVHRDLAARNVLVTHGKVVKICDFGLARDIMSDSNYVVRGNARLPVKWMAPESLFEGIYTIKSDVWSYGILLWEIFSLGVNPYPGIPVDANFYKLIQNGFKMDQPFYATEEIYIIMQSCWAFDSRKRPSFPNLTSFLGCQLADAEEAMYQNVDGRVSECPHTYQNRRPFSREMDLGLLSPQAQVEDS
As to the kind of experiment: FLT-3 kinase assay (HTScan kit, DELFIA). The settings on record: for inhibition at 0.1 µM: compound at 0.1 μM, read-out: FLT-3 0.1 μM, % of inhibition relative to control; for inhibition at 1 µM: compound at 1 μM, read-out: FLT-3 1 μM, % of inhibition relative to control. In short, it runs like this:
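GST-tagged human FLT-3 (Arg571-Ser993, baculovirus-expressed) phosphorylated 1.5 μM biotinylated gastrin precursor peptide with 20 μM ATP in HEPES pH 7.5, Mg/Mn buffer and 1% DMSO. After 5 min preincubation, the reaction ran 30 min at room temperature. Phosphorylation was read by DELFIA.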

Assay [2] concerns the target T2, human PDGFRβ (Gln557-Leu1106) (Homo sapiens, UniProt P09619).
T2 construct: human PDGFRβ (Gln557-Leu1106); GST (N); purchased Cell Signaling Technology; host or cells: baculovirus expression system
Description: PDGFR-beta kinase assay (HTScan kit, DELFIA). The note with it: compound at 10 μM. On the procedure: Compounds 1-100 were treated for their efficacy in inhibiting activities of FLT-3, c-KIT, KDR/Flk-1, PDGFR-beta, EGFR, and PKC kinases by biochemical DELFIA (Dissociation Enhanced Lanthanide FIA) assays according to the procedure described below. The assays were conducted by, Division of Cell Engineering, Biomedical Engineering Research Laboratories, Industrial Technology Research Institute, Bldg. 53, 195, sec. 4, Chung Hsing Rd. Chutung, Hsinchu, Taiwan 310, R.O.C.
The PDGFR-beta assay was conducted following the protocol described in Protocol for HTScan® PDGFR-beta Kinase Assay Kit (Cell Signaling Technology®). The assay was conducted under the following conditions: PDGFR-beta source: The GST-Kinase fusion protein was produced using a baculovirus expression system with a construct expressing human PDGFRβ (Gln557-Leu1106) (GenBank Accession No. NM_002609) with an amino-terminal GST tag, substrate: This biotinylated peptide contains the residues surrounding Tyr-589 of FLT-3, vehicle: 1% DMSO, pre-incubation time/temperature: 5 minutes at room temperature, incubation time/temperature: 30 minutes at room temperature, incubation buffer: 60 mM HEPES pH 7.5, 5 mM MgCl2, 5 mM MnCl2, 3 μM Na3VO4, 1.25 mM DTT, 20 μM ATP, and quantitative method: DELFIA® Assay.

Assay [3] deals with T3, human VEGFR-2 (Val789-Val1356) (Homo sapiens, UniProt P35968).
T3 construct: human VEGFR-2 (Val789-Val1356); GST (N); purchased Cell Signaling Technology; host or cells: baculovirus expression system
T3 sequence (P35968 789-1356): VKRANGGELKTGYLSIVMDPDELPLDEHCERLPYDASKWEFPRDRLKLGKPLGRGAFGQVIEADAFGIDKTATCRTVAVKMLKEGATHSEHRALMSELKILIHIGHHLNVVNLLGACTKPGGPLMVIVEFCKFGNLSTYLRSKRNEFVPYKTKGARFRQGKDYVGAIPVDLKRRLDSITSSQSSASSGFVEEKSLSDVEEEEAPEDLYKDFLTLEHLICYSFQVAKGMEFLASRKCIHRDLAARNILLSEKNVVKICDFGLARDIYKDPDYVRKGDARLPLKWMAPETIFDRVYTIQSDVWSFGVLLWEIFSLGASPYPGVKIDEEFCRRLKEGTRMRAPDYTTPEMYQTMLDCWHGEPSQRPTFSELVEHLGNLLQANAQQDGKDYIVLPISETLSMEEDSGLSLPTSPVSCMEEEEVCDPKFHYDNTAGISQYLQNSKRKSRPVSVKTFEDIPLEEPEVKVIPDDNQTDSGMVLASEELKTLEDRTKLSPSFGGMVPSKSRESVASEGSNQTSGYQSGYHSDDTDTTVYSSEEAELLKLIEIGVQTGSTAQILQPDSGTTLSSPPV
As to the kind of experiment: KDR kinase assay (HTScan VEGFR-2 kit, DELFIA). The note with it: for inhibition at 0.1 µM: compound at 0.1 μM, read-out: KDR 0.1 μM, % of inhibition relative to control; for inhibition at 1 µM: compound at 1 μM, read-out: KDR 1 μM, % of inhibition relative to control. The method in brief: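 GST-tagged human VEGFR-2 (Val789-Val1356) from baculovirus, with 1.5 μM biotinylated gastrin precursor peptide and 20 μM ATP in HEPES pH 7.5, Mg/Mn, vanadate, DTT, 1% DMSO. Pre-incubation 5 min, reaction 30 min at room temperature; phosphorylation read by DELFIA.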

The target of assay [4] is T4, human c-KIT (Thr544-Val976) (Homo sapiens, UniProt P10721).
T4 construct: human c-KIT (Thr544-Val976); GST (N); purchased Cell Signaling Technology; host or cells: baculovirus expression system
T4 sequence (P10721 544-976): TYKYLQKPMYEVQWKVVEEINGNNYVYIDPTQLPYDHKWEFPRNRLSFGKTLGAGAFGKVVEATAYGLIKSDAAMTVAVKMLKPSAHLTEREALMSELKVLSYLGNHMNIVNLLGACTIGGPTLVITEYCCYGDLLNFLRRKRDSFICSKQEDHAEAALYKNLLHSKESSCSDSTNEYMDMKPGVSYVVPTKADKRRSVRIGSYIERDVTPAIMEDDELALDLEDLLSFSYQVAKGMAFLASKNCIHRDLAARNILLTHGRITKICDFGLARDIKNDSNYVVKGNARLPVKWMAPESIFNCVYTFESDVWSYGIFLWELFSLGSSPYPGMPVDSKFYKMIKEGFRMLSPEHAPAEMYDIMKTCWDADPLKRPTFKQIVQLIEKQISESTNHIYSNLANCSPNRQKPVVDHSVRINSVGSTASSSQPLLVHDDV
Description: c-KIT kinase assay (HTScan kit, DELFIA). The settings on record: for inhibition at 0.1 µM: compound at 0.1 μM, read-out: c-KIT 0.1 μM, % of inhibition relative to control; for inhibition at 1 µM: compound at 1 μM, read-out: c-KIT 1 μM, % of inhibition relative to control. The method in brief: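 GST-tagged human c-KIT (Thr544-Val976) from baculovirus, with 1.5 μM biotinylated KDR Tyr-996 peptide and 20 μM ATP in HEPES pH 7.5 buffer containing Mg2+/Mn2+ and 1% DMSO. Enzyme and compound pre-incubated 5 min, reaction run 30 min at room temperature; phosphorylation detected by DELFIA.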

T2 sequence (P09619 557-1106): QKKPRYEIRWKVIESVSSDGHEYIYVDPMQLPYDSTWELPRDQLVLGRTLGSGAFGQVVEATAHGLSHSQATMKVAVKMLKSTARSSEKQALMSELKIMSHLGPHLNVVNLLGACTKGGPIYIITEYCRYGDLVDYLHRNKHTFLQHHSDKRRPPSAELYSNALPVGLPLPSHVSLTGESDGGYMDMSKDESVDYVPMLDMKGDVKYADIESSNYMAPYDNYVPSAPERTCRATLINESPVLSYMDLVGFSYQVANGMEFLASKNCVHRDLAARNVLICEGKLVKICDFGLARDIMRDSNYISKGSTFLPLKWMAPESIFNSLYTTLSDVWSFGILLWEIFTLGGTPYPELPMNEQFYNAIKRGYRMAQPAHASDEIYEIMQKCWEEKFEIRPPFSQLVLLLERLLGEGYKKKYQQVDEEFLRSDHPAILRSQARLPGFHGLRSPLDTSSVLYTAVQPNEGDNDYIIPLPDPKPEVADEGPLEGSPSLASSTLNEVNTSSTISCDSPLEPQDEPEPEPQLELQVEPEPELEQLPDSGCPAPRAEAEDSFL

Take `O=C1Nc2ccc(Br)cc2/C1=C\c1ccc2cccccc1-2` [Compound 7, 3-Azulen-1-ylmethylene-5-bromo-1,3-dihydro-indol-2-one]: the values for the inhibition at 0.1 µM in assay [1], in assay [3] and in assay [4] were 17.8%, 29.5% and 30.9%, respectively. Besides, the inhibition at 1 µM in assay [1] is 40.1%; in assay [3], 28.8%; in assay [4], 30.9%. In assay [2], the “PDGFR-β 10 μM, % of inhibition relative to control” value amounted to 4.7%.
On to `COC(=O)c1cc(/C=C2\C(=O)Nc3ccccc32)c2cccccc1-2` [Compound 16, 3-(2-Oxo-1,2-dihydro-indol-3-ylidenemethyl)-azulene-1-carboxylic acid methyl ester], for which the inhibition at 0.1 µM in assay [1] came to 7.7%; in assay [3], 15.4%; in assay [4], 2.8%. Further, the “PDGFR-β 10 μM, % of inhibition relative to control” value in assay [2] came out at 3.6%. Moreover, the inhibition at 1 µM in assay [3] came out at 20.1%; in assay [4] it was 2.8%.
For the compound `O=C1Nc2ccc(Cl)cc2/C1=C\c1ccc2cccccc1-2` [Compound 22, 3-Azulen-1-ylmethylene-5-chloro-1,3-dihydro-indol-2-one], the inhibition at 0.1 µM in assay [1] amounted to 28.8%; in assay [3], 15.6%; in assay [4], 16.6%. Besides, the inhibition at 1 µM in assay [1] was determined as 30.3%; in assay [3] it was 40.6%; in assay [4] it was 16.6%. In addition, in assay [2], the “PDGFR-β 10 μM, % of inhibition relative to control” value stood at 5.3%.
For `Cc1cc(C)c2ccc(/C=C3/C(=O)Nc4ccccc43)c-2c(C)c1` [Compound 9, 3-(4,6,8-Trimethyl-azulen-1-ylmethylene)-1,3-dihydro-indol-2-one], the inhibition at 1 µM in assay [1] was 3.8%; in assay [3] it was 33.4%; in assay [4], 11.5%. Moreover, the “PDGFR-β 10 μM, % of inhibition relative to control” value in assay [2] was determined as 14.7%. The values for the inhibition at 0.1 µM in assay [3] and in assay [4] were 12.3% and 11.5%, respectively.
Consider `Cc1cc(/C=C2/C(=O)Nc3ccccc32)c2c(C)ccc(C(C)C)cc1-2` [Compound 12, 3-(5-Isopropyl-3,8-dimethyl-azulen-1-ylmethylene)-1,3-dihydro-indol-2-one], for which the “PDGFR-β 10 μM, % of inhibition relative to control” value in assay [2] is 7.3%. The inhibition at 0.1 µM in assay [3] turned out to be 17.3%; in assay [4], 14.7%. Moreover, the inhibition at 1 µM in assay [3] was determined as 34.3%; in assay [4] it was 14.7%.
Consider `O=C1C(=Cc2ccc3cccccc2-3)c2ccccc2N1Cc1ccccc1` [Compound 2, 3-Azulen-1-ylmethylene-1-benzyl-1,3-dihydro-indol-2-one], for which the “PDGFR-β 10 μM, % of inhibition relative to control” value in assay [2] is 3.6%. Besides, the inhibition at 1 µM in assay [3] was 10.3%. Besides, in assay [4], the inhibition at 0.1 µM amounted to 24.7% and the inhibition at 1 µM was found to be 24.7%.
For `O=C1Nc2ccccc2/C1=C\c1c2cccccc-2[nH]c1=O` [Compound 27, 3-(2-Oxo-1,2-dihydro-indol-3-ylidenemethyl)-1H-cyclohepta[b]pyrrol-2-one], the figures for the inhibition at 0.1 µM in assay [1], in assay [3] and in assay [4] were 8.6%, 25.9% and 25.7%, respectively. The inhibition at 1 µM was 30.9% in assay [1], 39.5% in assay [3] and 25.7% in assay [4]. The “PDGFR-β 10 μM, % of inhibition relative to control” value in assay [2] stood at 5.3%.
For the compound `O=C1/C(=C/c2ccc3cccccc2-3)c2ccccc2N1C(c1ccccc1)c1ccccc1` [Compound 3, 3-Azulen-1-ylmethylene-1-benzhydryl-1,3-dihydro-indol-2-one], the inhibition at 1 µM in assay [1] came out at 5.1%. Moreover, the “PDGFR-β 10 μM, % of inhibition relative to control” value in assay [2] came to 14.4%.
For the compound `O=C1Nc2ccc(F)cc2/C1=C/c1ccc2cccccc1-2` [Compound 26, 3-Azulen-1-ylmethylene-5-fluoro-1,3-dihydro-indol-2-one], the results for the inhibition at 0.1 µM in assay [1], in assay [3] and in assay [4] were 5%, 33.9% and 60.4%, respectively. Moreover, the figures for the inhibition at 1 µM in assay [1], in assay [3] and in assay [4] were 34.7%, 59.1% and 60.4%, respectively. Also, in assay [2], the “PDGFR-β 10 μM, % of inhibition relative to control” value worked out at 7.9%.
Consider `O=C1Nc2ccc([N+](=O)[O-])cc2/C1=C/c1ccc2cccccc1-2` [Compound 8, 3-Azulen-1-ylmethylene-5-nitro-1,3-dihydro-indol-2-one], for which the values for the inhibition at 1 µM in assay [1], in assay [3] and in assay [4] were 11.5%, 55.9% and 36.4%, respectively. Further, the “PDGFR-β 10 μM, % of inhibition relative to control” value in assay [2] is reported as 16.2%. Besides, the inhibition at 0.1 µM in assay [3] worked out at 26.4%; in assay [4] it was 36.4%.
In the case of `O=C1Nc2ccc(Br)cc2/C1=C/c1ccc2cccccc1-2` [Compound 6, 3-Azulen-1-ylmethylene-5-bromo-1,3-dihydro-indol-2-one], the “PDGFR-β 10 μM, % of inhibition relative to control” value in assay [2] was determined as 35.5%. Further, the inhibition at 0.1 µM came to 19.6% in assay [3] and 36.6% in assay [4]. The inhibition at 1 µM worked out at 29.7% in assay [3] and 36.6% in assay [4].
In the case of `Cc1cc(C)c2ccc(/C=C3/C(=O)N(Cc4ccccc4)c4ccccc43)c-2c(C)c1` [Compound 10, 1-Benzyl-3-(4,6,8-trimethyl-azulen-1-ylmethylene)-1,3-dihydro-indol-2-one], the “PDGFR-β 10 μM, % of inhibition relative to control” value in assay [2] was 18.6%. Moreover, the results for the inhibition at 0.1 µM in assay [3] and in assay [4] were 22.1% and 8.4%, respectively. The inhibition at 1 µM in assay [3] was 38.5%; in assay [4], 8.4%.

(Values after patent US7714146B2, “Azulene-oxindole compounds as multiple-kinase inhibitors and useful as anticancer agents” (Industrial Technology Research Institute, priority 2006, dated 2010).)
